Data from US8394786B2, “Quinazoline derivatives” (Janssen Pharmaceutica N.V., priority 2003, dated 2013).

Experiments:
SKOV3 cells = assay: Serum starved proliferation assay on the ovarian carcinoma SKOV3 cells (C3); format: cell-based; conditions: EGF stimulated (100 ng/ml, 72 hours, serum free) or 72 hours with compounds, MTT cell viability assay; for IC50: Homo sapiens, SK-OV-3, 72 h, read-out: SKOV3 cell (C3): pIC50 (converted)
Experimental: The ovarian carcinoma cell line (SKOV3) was used in an epidermal growth factor stimulated cell proliferation assay, to assess the inhibitory effect of the compounds on EGF in whole cells.
In a first step the SKOV3 cells were incubated for 24 hours in the presence of 10% FCS serum. In the second step the cells were incubated with the compounds to be tested in a serum free condition (37° C. and 5% (v/v) CO2) and subsequently stimulated for 72 hours with EGF at a final concentration of 100 ng/ml. The effect of the compounds on the EGF stimulation was finally assessed in a standard MTT cell viability assay.
Alternatively, the SKOV3 cells were incubated for 24 hours in the presence of 10% FCS serum. In the second step the cells were incubated for 72 hours with the compounds to be tested and the effect of the compounds on cell proliferation was finally assessed in a standard MTT cell viability assay.

EGFR = EGFR (Homo sapiens, UniProt P00533); assay: In vitro inhibition of EGFR, Flash Plate or glass-fiber filter technology (C2); format: biochemical; set-up: 0.5 μg EGFR-kinase domain/well; conditions: EGFR-kinase domain, 5.0 μM unlabeled ATP, read-out: Kinase activity.(C2): pIC50 (converted)
Experimental: The in vitro inhibition of EGFR was assessed using either the Flash Plate technology or the glass-fiber filter technology as described by Davies, S. P. et al., Biochem J. (2000), 351; p. 95-105. The Flash Plate technology is generally described by B. A. Brown et al. in High Throughput Screening (1997), p. 317-328. Editor(s): Devlin, John P. Publisher: Dekker, New York, N.Y.
In the Flash Plate EGFR kinase reaction assay, a kinase substrate consisting of biotinylated poly(L-glutamic acid-L-tyrosine) (poly(GT)biotin), is incubated with the aforementioned protein in the presence of (^33P) radiolabeled ATP. (^33P) phosphorylation of the substrate is subsequently measured as light energy emitted using a streptavidin-coated Flash Plate (PerkinElmer Life Sciences) by trapping and quantifying the binding of the biotin tagged and radiolabeled substrate.
The EGFR kinase reaction is performed at 30° C. for 60 minutes in a 96-well microtiter FlashPlate (PerkinElmer Life Sciences). For each of the tested compounds a full dose response 1·10^−6M to 1·10^−10M has been performed. IRESSA° and Tarceva™ (erlotinib) were used as reference compounds. The 100 μl reaction volume contains 54.5 mM TrisHCl pH 8.0, 10 mM MgCl2, 100 μM Na3VO4, 5.0 μM unlabeled ATP, 1 mM DTT, 0.009% BSA, 0.8 μCi AT^33P, 0.35 μg/well poly(GT)biotin and 0.5 μg EGFR-kinase domain/well.
The reaction is stopped by aspirating the reaction mixture and washing the plate 3× with 200 μl wash/stop buffer (PBS+100 mM EDTA). After the final wash step 200 μl of wash/stop buffer was added to each well and the amount of phosphorylated (^33P) Poly(GT)biotin determined by counting (30 sec/well) in a microtiterplate scintillation counter.
In the glass-fiber filter technology EGFR kinase reaction assay, a kinase substrate consisting of poly(L-glutamic acid-L-tyrosine) (poly(GT)), is incubated with the aforementioned protein in the presence of (^33P) radiolabeled ATP. (^33P) Phosporylation of the substrate is subsequently measured as radioactivity bound on a glassfiber-filter.
The EGFR kinase reaction is performed at 25° C. for 10 minutes in a 96-well microtiterplate. For each of the tested compounds a full dose response 1·10^−6M to 1·10^−10M has been performed. IRESSA° and Tarceva™ (erlotinib) were used as reference compounds. The 25 μl reaction volume contains 60 mM TrisHCl pH 7.5, 3 mM MgCl2, 3 mM Mn Cl2, 3 μM Na3VO4, 50 μg/ml PEG20000, 5.0 μM unlabeled ATP, 1 mM DTT, 0.1 μCi AT^33P, 62.5 ng/well poly(GT) and 0.5 μg EGFR-kinase domain/well.
The reaction is stopped by adding 5 μl of a 3% phosphoric acid solution. 10 μl of the reaction mixture is then spotted onto a Filtermat A filter (Wallac) and washed 3 times for 5 min. in 75 mM phosphoric acid and 1 time for 5 min. in methanol prior to drying and quantification on the Typhoon (Amersham) using a LE phosphorage storage screen.

Chain of EGFR (P00533 712-979 limits assumed): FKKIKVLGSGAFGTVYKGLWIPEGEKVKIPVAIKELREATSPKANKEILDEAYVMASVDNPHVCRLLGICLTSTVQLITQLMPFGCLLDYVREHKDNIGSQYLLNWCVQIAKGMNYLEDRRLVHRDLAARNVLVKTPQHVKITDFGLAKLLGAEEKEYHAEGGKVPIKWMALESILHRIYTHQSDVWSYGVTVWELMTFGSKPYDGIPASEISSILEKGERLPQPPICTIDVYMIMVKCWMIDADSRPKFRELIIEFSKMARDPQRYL

Row | SKOV3 cell (C3): pIC50 (SKOV3 cells) | IC50 (EGFR) [µM] | IC50 (SKOV3 cells) [µM] | SMILES
1 |  | 7.94 | 10 | COc1cc2ncnc3c2cc1OCC(=O)N1CCCC1C(=O)NCc1ccccc1N3 (stereo not drawn) [Compound 125, 9,11-ethanediylidenepyrimido[4,5-b]pyrrolo[1,2-i][6,1,9,12]benzoxatriazacyclopentadecine-14,19(5H,13H)-dione, 16,17,18,18a,20,21-hexahydro-22-methoxy-]
2 |  | 2 | 2.51 | COc1cc2ncnc3c2cc1OCC(=O)N1CCCC1C(=O)NCc1ccc(Cl)cc1N3 (stereo not drawn) [Compound 126, 9,11-ethanediylidenepyrimido[4,5-b]pyrrolo[1,2-i][6,1,9,12]benzoxatriazacyclopentadecine-14,19(5H,13H)-dione, 3-chloro-16,17,18,18a,20,21-hexahydro-22-methoxy-]
3 |  | 0.251 | 1.58 | COc1cc2ncnc3c2cc1OCC(=O)NC(C(C)O)C(=O)NCc1ccc(Cl)cc1N3 (stereo not drawn) [Compound 127, 4,6-ethanediylidenepyrimido[4,5-b][6,1,9,12]benzoxatriazacyclopentadecine-9,12(8H,13H)-dione, 17-chloro-10,11,14,19-tetrahydro-11-(1-hydroxyethyl)-20-methoxy-]
4 |  | 0.01 | 0.2 | CCC(C)C1NC(=O)CCCOc2cc3c(ncnc3cc2OC)Nc2cc(Cl)ccc2CNC1=O (stereo not drawn) [Compound 128, 4,6-ethanediylidenepyrimido[4,5-b][6,1,11,14]benzoxatriazacycloheptadecine-11,14(8H,15H)-dione, 19-chloro-9,10,12,13,16,21-hexahydro-22-methoxy-13-(1-methylpropyl)-]
5 |  | 1.58 | 3.98 | COc1cc2ncnc3c2cc1OCC(=O)NC(CO)C(=O)NCc1ccc(Cl)cc1N3 (stereo not drawn) [Compound 129, 4,6-ethanediylidenepyrimido[4,5-b][6,1,9,12]benzoxatriazacyclopentadecine-9,12(8H,13H)-dione, 17-chloro-10,11,14,19-tetrahydro-11-(hydroxymethyl)-20-methoxy-]
6 |  | 0.0251 | 0.126 | COc1cc2ncnc3c2cc1OCCCC(=O)NC(CO)C(=O)NCc1ccc(Cl)cc1N3 (stereo not drawn) [Compound 130, 4,6-ethanediylidenepyrimido[4,5-b][6,1,11,14]benzoxatriazacycloheptadecine-11,14(8H,15H)-dione, 19-chloro-9,10,12,13,16,21-hexahydro-13-(hydroxymethyl)-22-methoxy-]
7 |  | 0.0251 | 0.1 | COc1cc2ncnc3c2cc1OCCCC(=O)NC(C)C(=O)NCc1ccc(Cl)cc1N3 (stereo not drawn) [Compound 131, 4,6-ethanediylidenepyrimido[4,5-b][6,1,11,14]benzoxatriazacycloheptadecine-11,14(8H,15H)-dione, 19-chloro-9,10,12,13,16,21-hexahydro-22-methoxy-13-methyl-]

Second part, the compound before the results:

Row | SMILES | SKOV3 cell (C3): pIC50 (SKOV3 cells) | IC50 (EGFR) [µM] | IC50 (SKOV3 cells) [µM]
8 | COc1cc2ncnc3c2cc1OCCCC=CCCCC(=O)NCc1ccc(Cl)cc1N3 [Compound 105, 4,6-ethanediylidenepyrimido[4,5-b][6,1,16]benzoxadiazacyclononadecin-16(17H)-one, 21-chloro-8,9,10,13,14,15,18,23-octahydro-24-methoxy-] | 7.6 | 0.158 | 
9 | COc1cc2ncnc3c2cc1OCCCC=CCCCC(=O)NCc1ccc(Cl)cc1N3 [Compound 106, 4,6-ethanediylidenepyrimido[4,5-b][6,1,16]benzoxadiazacyclononadecin-16(17H)-one, 21-chloro-8,9,10,13,14,15,18,23-octahydro-24-methoxy-] | 7.2 | 0.1 | 
10 | COc1cc2ncnc3c2cc1OCCC=CCCCC(=O)NCc1ccc(Cl)cc1N3 [Compound 108, 4,6-ethanediylidene-8H-pyrimido[4,5-b][6,1,15]benzoxadiazacyclooctadecin-15(16H)-one, 20-chloro-9,12,13,14,17,22-hexahydro-23-methoxy-] |  | 0.398 | 0.158
11 | COc1cc2ncnc3c2cc1OCCCC=CCC(NC(=O)OC(C)(C)C)C(=O)NCc1ccc(Cl)cc1N3 (stereo not drawn) [Compound 109, carbamic acid, (20-chloro-9,10,13,14,15,16,17,22-octahydro-23-methoxy-15-oxo-4,6-ethanediylidene-8H-pyrimido[4,5-b][6,1,15]benzoxadiazacyclooctadecin-14-yl)-, 1,1-dimethylethyl ester] | 6.5 | 2 | 
12 | COc1cc2ncnc3c2cc1OCCCCCCC(NC(=O)OC(C)(C)C)C(=O)NCc1ccc(Cl)cc1N3 (stereo not drawn) [Compound 111, carbamic acid, (20-chloro-9,10,11,12,13,14,15,16,17,22-decahydro-23-methoxy-15-oxo-4,6-ethanediylidene-8H-pyrimido[4,5-b][6,1,15]benzoxadiazacyclooctadecin-14-yl)-, 1,1-dimethylethyl ester] |  | 1.58 | 10
13 | COc1cc2ncnc3c2cc1OCCCCCNCCN(C)Cc1ccc(Cl)cc1N3 [Compound 117, 4,6-ethanediylidene-8H-pyrimido[4,5-b][6,1,12,15]benzoxatriazacyclooctadecine, 20-chloro-9,10,11,12,13,14,15,16,17,22-decahydro-23-methoxy-16-methyl-] |  | 0.2 | 3.98
14 | COc1cc2ncnc3c2cc1OCC(=O)NC(C)C(=O)NCCc1ccc(Cl)cc1N3 (stereo not drawn) [Compound 119, 4,6-ethanediylidene-8H-pyrimido[4,5-b][6,1,9,12]benzoxatriazacyclohexadecine-9,12-dione, 18-chloro-10,11,13,14,15,20-hexahydro-21-methoxy-11-methyl-] |  | 1 | 1.58
15 | COc1cc2ncnc3c2cc1OCC(=O)NC(C)C(=O)NCc1ccc(Cl)cc1N3 (stereo not drawn) [Compound 120, 4,6-ethanediylidenepyrimido[4,5-b][6,1,9,12]benzoxatriazacyclopentadecine-9,12(8H,13H)-dione, 17-chloro-10,11,14,19-tetrahydro-20-methoxy-11-methyl-] |  | 2 | 1
16 | COc1cc2ncnc3c2cc1OCC(=O)NC(C(C)C)C(=O)NCc1ccc(Cl)cc1N3 (stereo not drawn) [Compound 121, 4,6-ethanediylidenepyrimido[4,5-b][6,1,9,12]benzoxatriazacyclopentadecine-9,12(8H,13H)-dione, 17-chloro-10,11,14,19-tetrahydro-20-methoxy-11-(1-methylethyl)-] |  | 2.51 | 10
17 | COc1cc2ncnc3c2cc1OCC(=O)NC(Cc1ccccc1)C(=O)NCc1ccc(Cl)cc1N3 (stereo not drawn) [Compound 122, 4,6-ethanediylidenepyrimido[4,5-b][6,1,9,12]benzoxatriazacyclopentadecine-9,12(8H,13H)-dione, 17-chloro-10,11,14,19-tetrahydro-20-methoxy-11-(phenylmethyl)-] |  | 0.398 | 10
18 | COc1cc2ncnc3c2cc1OCC(=O)NC(C)C(=O)NCc1ccccc1N3 (stereo not drawn) [Compound 123, 4,6-ethanediylidenepyrimido[4,5-b][6,1,9,12]benzoxatriazacyclopentadecine-9,12(8H,13H)-dione, 10,11,14,19-tetrahydro-20-methoxy-11-methyl-] |  | 6.31 | 10
